Test results reported in PubChem BioAssay AID1996.
Converted amounts (≈) assume the structure as drawn.

Conditions: buffer; pH 7.4; 200.0 µM

Structure (SMILES) | solubility kinetic
CCC(NC(=S)NCc1ccc(F)cc1)c1ccccc1 (stereo unspecified) | 3.4 µg/mL (≈ 11.2 µM)
COc1ccc(CCNC(=O)c2ccc(Cl)nc2)cc1 | 36.5 µg/mL (≈ 126 µM)
COc1ccc(NC(=O)c2cc3ccccc3cc2OC)cc1 | 5.9 µg/mL (≈ 19.2 µM)
COc1ccc(CCC(=O)OCC(=O)Nc2ccccc2)cc1 | > 47 µg/mL
CC(=O)Nc1nc(C)c(C(C)(C)C)s1 | > 31.8 µg/mL
COc1ccc2nc(NC(=O)NC3CCCCC3)sc2c1 | < 0.2 µg/mL
Cc1ccc(S(=O)(=O)N2CCC(C(=O)NCCCN3CCCC3=O)CC2)cc1 | 51.9 µg/mL (≈ 127 µM)
O=[N+]([O-])c1ncccc1OCc1ccc(Cl)c(Cl)c1 | 0.4 µg/mL (≈ 1.34 µM)
CSc1ncc(CN2CCN(C3CCCC3)C(CCO)C2)cn1 (stereo unspecified) | 42.6 µg/mL (≈ 127 µM)
CN(C(=O)COC(=O)c1cn(C)c2ccccc12)C1CCCCC1 | > 49.3 µg/mL
Cn1ccnc1SCC(=O)N1CCc2ccccc21 | 38.9 µg/mL (≈ 142 µM)
CC(C)COc1cccc(C(=O)NC2(C)CCS(=O)(=O)C2)c1 (stereo unspecified) | > 48.8 µg/mL
CC(C)=NOc1nc(N(C)C)nc(N2CCOCC2)n1 | 41.9 µg/mL (≈ 149 µM)
CN(Cc1cccs1)c1nc(-c2cccnc2)nc2ccccc12 | 3 µg/mL (≈ 9.02 µM)
CC(=O)Nc1sc(C)c(C)c1C(=O)OCCOc1ccccc1 | 1.6 µg/mL (≈ 4.8 µM)
COCCCn1c(=S)[nH]c2sc3c(c2c1=O)CCCC3 | > 46.6 µg/mL
Nc1ccc(OCc2ccco2)cc1 | 19.5 µg/mL (≈ 103 µM)
Cc1ccc(SC(=O)c2c(C)noc2-c2cc(C)on2)cc1 | 3 µg/mL (≈ 9.54 µM)
O=C(COC(=O)/C=C/c1cccc(Cl)c1)Nc1ccc(N2CCOCC2)cc1 | 3.2 µg/mL (≈ 7.98 µM)
CCOc1ccc(N2CC(C(=O)N3CCCC3)CC2=O)cc1 (stereo unspecified) | > 45.4 µg/mL
CCCc1cc(=O)[nH]c(SCC(=O)Nc2ccc(N3CCCCC3)cc2)n1 | 16.6 µg/mL (≈ 42.9 µM)
Cc1ccc(S(=O)(=O)n2c(C)nc3ccccc32)cc1 | 2.2 µg/mL (≈ 7.68 µM)

Structure (SMILES) | solubility kinetic
CC1CN(c2ccc([N+](=O)[O-])c(N3CCCCC3)c2)CCN1 (stereo unspecified) | 42.4 µg/mL (≈ 139 µM)
Cc1cc(C(=O)NCc2ccco2)c2cc(F)ccc2n1 | 42.3 µg/mL (≈ 149 µM)
Cc1ccc(C)c(NC(=S)N(C)CCO)c1 | > 35.8 µg/mL
O=C(N/N=C\c1cccnc1)c1ccc(Cl)cc1Cl | > 44.1 µg/mL
O=[N+]([O-])c1cccc(-c2cnc3ccccc3n2)c1 | < 0.2 µg/mL
CN(C(=O)CNc1ccccc1Cl)C1CCS(=O)(=O)C1 (stereo unspecified) | > 47.5 µg/mL
CC1=CC(C)(C)NC(=S)N1c1ccccc1C | 13.6 µg/mL (≈ 55.2 µM)
Cc1nc2ccccn2c1C(=O)NN=C1CCCC1 | > 38.4 µg/mL
CC(C)c1ccccc1NC(=O)C1C2C=CC(C2)C1C(=O)O (stereo unspecified) | 42.1 µg/mL (≈ 141 µM)
CCOc1ccc(NC(=O)Cc2ccc(S(=O)(=O)N3CCCCC3)cc2)cc1OCC | 7 µg/mL (≈ 15.7 µM)
N#C/C(=C\c1cccnc1)C(=O)Nc1ccc(C(=O)O)cc1 | > 44 µg/mL
CCCCNc1c(N)n(CCC)c(=O)[nH]c1=O | > 36 µg/mL
CC1(C)CC2CC(C)(CN2C(=O)COC(=O)c2cccc([N+](=O)[O-])c2)C1 (stereo unspecified) | > 54.1 µg/mL
COC(=O)c1sc(NC(=O)/C=C/c2ccccc2Cl)nc1C | 1.5 µg/mL (≈ 4.45 µM)
COc1ccc2[nH]cc(CCNC(=O)Cc3ccc(F)cc3)c2c1 | 25.4 µg/mL (≈ 77.8 µM)
CN(C)c1cccc(C(=O)OCC(=O)c2ccc[nH]2)c1 | > 40.8 µg/mL
CCCCOc1ccc(C(=O)Nc2ccc3c(c2)OCO3)cc1 | < 0.7 µg/mL
CCc1nc2ccccc2c(C(=O)Nc2cccc(C)c2)c1C | 2.2 µg/mL (≈ 7.23 µM)
COc1cc(/C=C(\C#N)c2nc3ccccc3[nH]2)ccc1O | 4.9 µg/mL (≈ 16.8 µM)
CCOC(=O)CC1COCCN1Cc1cn(C)nc1-c1ccccc1F (stereo unspecified) | > 54.2 µg/mL
CCOC(=O)c1csc(COc2ccc(OC)cc2)n1 | 11.3 µg/mL (≈ 38.5 µM)
CSc1ccccc1NC(=O)CN(C)C(=O)COc1cccc2cccnc12 | > 59.3 µg/mL

Structure (SMILES) | solubility kinetic
CN(CC(=O)Nc1ccc(F)cc1)CC(=O)N1CCc2ccccc21 | > 51.2 µg/mL
CC1(C)Cc2ccccc2/C(=C/C(=O)c2ccccc2)N1 | < 0.6 µg/mL
Cc1cc(C)nc(NC(=O)c2c(Cl)cccc2Cl)n1 | > 44.4 µg/mL
CCOC(=O)Cn1c2ccccc2c2nc(C)sc21 | > 41.2 µg/mL
Cc1cc(C)c(C#N)c(SCC(=O)Nc2nonc2N)n1 | 15.3 µg/mL (≈ 50.3 µM)
CCOC(=O)c1cccc(NC(=O)CCc2ccccc2)c1 | 33.1 µg/mL (≈ 111 µM)
COc1ccc(NC(C)=O)cc1NC(=O)c1ccc(C#N)cc1 | > 46.4 µg/mL
CC(C)OC(=O)C(C)Nc1ccc(F)c(Cl)c1 (stereo unspecified) | 5.8 µg/mL (≈ 22.3 µM)
COc1ccccc1CC(=O)NCc1csc(-c2cccs2)n1 | 46 µg/mL (≈ 134 µM)
COc1ccc(OC(C)C(=O)NC(C)c2ccccc2)cc1 (stereo unspecified) | > 44.9 µg/mL
N#CCc1c(C#N)c(N)nc(N2CCN(C=O)CC2)c1C#N | > 44.3 µg/mL
COc1cc(OC)c(C(=O)O/N=C(\N)c2ccccn2)cc1OC | > 49.7 µg/mL
O=S(=O)(Nc1ccc(O)c2ccccc12)c1cccs1 | 24.9 µg/mL (≈ 81.5 µM)
Cn1c(/C=C/c2ccc(Cl)cc2)c([N+](=O)[O-])c(=O)n(C)c1=O | 5 µg/mL (≈ 15.5 µM)
CS(=O)(=O)c1ccccc1C(=O)Nc1nc2ccccc2[nH]1 | > 47.3 µg/mL
CCN(CC(=O)Nc1c(F)cccc1F)C(=O)c1ccc(=O)[nH]c1 | > 50.3 µg/mL
O=[N+]([O-])c1ccc(-c2cn3ccccc3n2)cc1 | 1.7 µg/mL (≈ 7.11 µM)
Cc1ccc(NC(=O)CCn2c(=S)oc3ccccc32)cc1F | < 0.4 µg/mL
N/C(=N\OC(=O)c1cccc(Br)c1)c1ccccn1 | 3 µg/mL (≈ 9.37 µM)
CC(C)(C)Cc1nnc(NC(=O)c2ccco2)s1 | > 39.8 µg/mL
O=C1NC(=S)NC(=O)C1=Cc1ccc(OCC(=O)N2CCCC2)cc1 | 51.8 µg/mL (≈ 144 µM)
Cc1cc(NC(=O)Nc2cc(Cl)sc2Cl)no1 | < 0.2 µg/mL

Structure (SMILES) | solubility kinetic
Cc1cc(C)c2[nH]c(C)c(CN3CCCCCC3)c(=O)c2c1 | > 44.8 µg/mL
CC(NC(=O)CN1CCN(c2ccc(Cl)cc2)CC1)c1ccccc1 (stereo unspecified) | 8.8 µg/mL (≈ 24.6 µM)
N#CC1CCCc2c1[nH]c1ccc([N+](=O)[O-])cc21 (stereo unspecified) | 20.8 µg/mL (≈ 86.2 µM)
CC(=O)Nc1cc2c3c(c1)CC(=O)N3CCC2 | > 34.5 µg/mL
COc1ccc(-c2cn(-c3ccc(C)cc3C)c(=S)[nH]2)cc1OC | 16.8 µg/mL (≈ 49.3 µM)
O=C(Cn1cc(C(F)(F)F)ccc1=O)N/N=C/c1ccccc1 | > 48.5 µg/mL
CCCCN1C2=NC(c3ccccc3)CN2c2ccccc21.Cl (stereo unspecified) | 44.1 µg/mL
O=C(NCc1ccccc1F)c1ccc2c(c1)OCCO2 | > 43.1 µg/mL
CCOc1ccccc1NC(=O)CN1C(=O)C(C)SC(C)C1=O (stereo unspecified) | 34.5 µg/mL (≈ 103 µM)
COC(=O)c1c(NC(=O)C(C)(C)C)csc1C | 18.1 µg/mL (≈ 70.9 µM)
CCC(C(=O)Nc1cccnc1)c1ccccc1 (stereo unspecified) | 34.3 µg/mL (≈ 143 µM)
CCOC(=O)Cc1cc(=O)[nH]c(/N=C(\N)Nc2ccc(C)c(C)c2)n1 | 2.1 µg/mL (≈ 6.12 µM)
O=[N+]([O-])c1ccc(Oc2ccc(S(=O)(=O)N3CCOCC3)cc2)cc1 | 18.1 µg/mL (≈ 49.7 µM)
O=C(CNC(=O)c1ccco1)N/N=C/c1ccc(O)cc1O | > 45.5 µg/mL
Nc1ncnc(Oc2cccc(C(F)(F)F)c2)c1[N+](=O)[O-] | 7.6 µg/mL (≈ 25.3 µM)
Cc1ccc(Oc2ccc(NS(=O)(=O)c3cccc(C(=O)O)c3)cc2)cc1 | 57.2 µg/mL (≈ 149 µM)
CC(C)c1ccc(S(=O)(=O)c2cnc(=S)[nH]c2N)cc1 | 0.9 µg/mL (≈ 2.91 µM)
CC(=O)Nc1ccc(N/C=C/C(=O)c2ccccc2)cc1 | 4.1 µg/mL (≈ 14.6 µM)
N#Cc1ccccc1NC(=O)COc1ccc2c(c1)OCO2 | 17.1 µg/mL (≈ 57.7 µM)
S=c1nc[nH]c2nc[nH]c12 | 22.5 µg/mL (≈ 148 µM)
